Converted amounts (≈) assume the structure as drawn. Where two headings read alike, the source gives them in different places.
Experiments:
Jurkat cells = assay: Cell cytotoxicity assay (propidium iodide, flow cytometry); format: cell-based, human; conditions: 24 h
Method: 1×10^5 Jurkat cells (immortalised human T lymphocytes) are added to the appropriate number of wells of a 96 well plate in 100 μL of media (RPMI supplemented with 10% foetal bovine serum). 1 μL of DMSO control (final concentration 1.0% v/v) or test compound (final concentration 20, 5 or 1 μg/mL) is added to the wells and incubated at 37° C., 5% CO2. After 24 hours, the plate is centrifuged at 1200 rpm for 3 minutes and the supernatant discarded. Cells are then resuspended in 150 μL (final concentration 7.5 μg/mL) of propidium iodide (PI) in PBS and incubated at 37° C., 5% CO2 for 15 minutes. After 15 minutes, cells are analysed by flow cytometry (BD accuri) using the FL3 window. The % viability is calculated as the % of cells that are PI negative in the test wells normalised to the DMSO control.

JAK3 = JAK3 (Homo sapiens (Human), UniProt P52333); assay: KINOMEscan enzyme binding assay (DiscoveRx), JAK3; conditions: read-out: Dissociation Constant JAK3
JAK3, sequence (P52333 whole entry): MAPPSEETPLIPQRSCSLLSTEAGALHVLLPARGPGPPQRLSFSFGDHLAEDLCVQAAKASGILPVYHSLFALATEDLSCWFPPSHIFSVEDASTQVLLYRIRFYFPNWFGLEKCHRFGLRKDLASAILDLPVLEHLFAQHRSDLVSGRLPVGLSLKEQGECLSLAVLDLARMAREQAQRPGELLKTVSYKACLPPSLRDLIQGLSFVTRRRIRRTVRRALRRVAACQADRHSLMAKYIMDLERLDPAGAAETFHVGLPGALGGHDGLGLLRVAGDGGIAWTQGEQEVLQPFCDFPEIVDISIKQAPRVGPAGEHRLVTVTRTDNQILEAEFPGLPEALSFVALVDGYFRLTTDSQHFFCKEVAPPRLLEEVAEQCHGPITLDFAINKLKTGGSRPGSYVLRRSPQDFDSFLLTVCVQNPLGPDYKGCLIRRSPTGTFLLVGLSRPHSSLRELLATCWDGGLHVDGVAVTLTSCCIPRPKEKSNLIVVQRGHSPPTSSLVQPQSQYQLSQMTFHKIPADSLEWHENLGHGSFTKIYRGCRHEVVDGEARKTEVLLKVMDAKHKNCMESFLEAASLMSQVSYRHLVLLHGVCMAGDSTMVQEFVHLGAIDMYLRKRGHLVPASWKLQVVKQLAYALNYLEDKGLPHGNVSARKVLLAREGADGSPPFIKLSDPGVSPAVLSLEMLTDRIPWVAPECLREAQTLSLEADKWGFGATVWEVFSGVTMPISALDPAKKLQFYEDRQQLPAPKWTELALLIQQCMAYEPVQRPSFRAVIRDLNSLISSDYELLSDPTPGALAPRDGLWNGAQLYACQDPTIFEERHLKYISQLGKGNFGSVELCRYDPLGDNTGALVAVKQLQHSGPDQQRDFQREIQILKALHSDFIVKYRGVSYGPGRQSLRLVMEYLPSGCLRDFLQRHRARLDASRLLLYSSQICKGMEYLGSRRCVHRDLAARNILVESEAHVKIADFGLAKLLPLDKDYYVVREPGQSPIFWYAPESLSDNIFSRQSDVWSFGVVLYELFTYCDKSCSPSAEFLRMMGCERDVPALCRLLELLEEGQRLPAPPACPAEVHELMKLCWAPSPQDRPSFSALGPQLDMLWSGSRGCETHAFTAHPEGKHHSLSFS
Method: (§1) These assays may be conducted by DiscoveRx (formerly Ambit; San Diego, Calif.). The percentage inhibition produced by incubation with a test compound may be calculated relative to the non-inhibited control.

JAK2 = JAK2 (Homo sapiens (Human), UniProt O60674); assay: KINOMEscan enzyme binding assay (DiscoveRx), JAK2; conditions: read-out: Dissociation Constant JAK2
JAK2, sequence (O60674 whole entry): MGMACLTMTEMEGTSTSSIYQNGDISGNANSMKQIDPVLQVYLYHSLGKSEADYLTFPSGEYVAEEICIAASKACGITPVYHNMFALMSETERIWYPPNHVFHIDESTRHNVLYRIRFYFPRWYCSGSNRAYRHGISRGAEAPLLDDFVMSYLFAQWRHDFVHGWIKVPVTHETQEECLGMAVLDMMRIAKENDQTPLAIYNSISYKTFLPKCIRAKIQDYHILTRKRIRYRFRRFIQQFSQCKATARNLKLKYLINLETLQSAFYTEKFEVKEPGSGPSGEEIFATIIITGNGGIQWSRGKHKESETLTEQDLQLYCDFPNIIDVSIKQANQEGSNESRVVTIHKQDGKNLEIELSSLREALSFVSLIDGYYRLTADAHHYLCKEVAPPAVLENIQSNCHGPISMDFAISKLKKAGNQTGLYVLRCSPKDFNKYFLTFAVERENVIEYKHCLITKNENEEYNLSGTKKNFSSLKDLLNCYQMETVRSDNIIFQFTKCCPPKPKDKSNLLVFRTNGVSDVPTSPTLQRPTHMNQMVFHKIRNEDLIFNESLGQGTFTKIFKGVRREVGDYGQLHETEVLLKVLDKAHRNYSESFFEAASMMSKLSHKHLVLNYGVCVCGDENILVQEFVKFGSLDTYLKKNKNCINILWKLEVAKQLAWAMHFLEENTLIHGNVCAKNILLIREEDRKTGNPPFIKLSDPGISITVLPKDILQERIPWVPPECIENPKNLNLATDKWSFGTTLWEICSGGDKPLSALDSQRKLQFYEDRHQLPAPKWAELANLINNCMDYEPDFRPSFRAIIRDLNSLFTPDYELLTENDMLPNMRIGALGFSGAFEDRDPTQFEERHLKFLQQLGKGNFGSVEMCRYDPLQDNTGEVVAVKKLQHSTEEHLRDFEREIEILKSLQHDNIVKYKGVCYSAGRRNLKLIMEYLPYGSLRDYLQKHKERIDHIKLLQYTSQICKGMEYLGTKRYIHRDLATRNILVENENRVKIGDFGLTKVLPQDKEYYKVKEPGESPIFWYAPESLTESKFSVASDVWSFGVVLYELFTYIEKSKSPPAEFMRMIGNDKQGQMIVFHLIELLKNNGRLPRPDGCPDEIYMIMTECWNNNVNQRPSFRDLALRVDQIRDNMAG
Method: as §1

[1] = Solubility in fasted-state simulated colonic fluid (FaSSCoF); format: physicochemical; conditions: 25 °C, pH 6.5, fassgf or other biorelevant, thermodynamic from solid, pH 6.5, 25° C.
Method: The solubilities of compounds of the invention in FaSSCoF at pH 6.5 are determined using a modification of a previously-reported procedure (Vertzoni, M., et al. Pharm. Res. 2010, 27, 2187-2196). In place of the bile salt extract employed in the original procedure (which extract is no longer available), the modified procedure uses a mixture of sodium taurochlorate (0.15 g), glycocholic acid (0.15 g), ursodeoxycholic acid (0.05 g), cholic acid (0.05 g), and glycodeoxycholic acid (0.05 g). These five bile acids are ground together with a mortar and pestle to produce a fine white powder that is incorporated into the FaSSCoF, as outlined below.
FaSSCoF medium: Tris(hydroxymethyl)aminomethane (Tris; 0.275 g) and maleic acid (0.44 g) are dissolved in water (35 mL) to give a solution whose pH is adjusted to 6.5 by treatment with 0.5M NaOH (ca. 12 mL). The solution is then made up to 50 mL with water. A portion of this Tris/maleate buffer solution (ca. 25 mL) is added to a 0.5 L round-bottomed flask, before being treated with 0.00565 g of the bile acid mixture described above. Solutions of phosphatidylcholine (0.0111 g) in DCM (0.15 mL) and palmitic acid (0.0013 g) in DCM (0.15 mL) are added, then the organic solvent is evaporated off under reduced pressure at 40° C. until a clear solution, with no perceptible DCM odour, is achieved. The volume of the evaporated solution is adjusted to 50 mL by addition of the remainder of Tris/maleate buffer, then BSA (0.115 g) is added, before being dissolved by gentle agitation.
Solubility Determination: Test compounds are suspended in the pH 6.5 FaSSCoF medium to give a maximum final concentration of 2-10 mg/mL. The suspensions are equilibrated at 25° C. for 24 h, before being filtered through a glass fibre C filter. The filtrates are then diluted as appropriate for injection and quantification by HPLC with reference to a standard. Different volumes of the standard, diluted and undiluted sample solutions are injected and the solubilities are calculated using the peak areas determined by integration of the peak found at the same retention time as the principal peak in the standard injection.

JAK1 = JAK1 (Homo sapiens (Human), UniProt P23458); assay: KINOMEscan enzyme binding assay (DiscoveRx), JAK1; conditions: read-out: Dissociation Constant JAK1
JAK1, sequence (P23458 whole entry): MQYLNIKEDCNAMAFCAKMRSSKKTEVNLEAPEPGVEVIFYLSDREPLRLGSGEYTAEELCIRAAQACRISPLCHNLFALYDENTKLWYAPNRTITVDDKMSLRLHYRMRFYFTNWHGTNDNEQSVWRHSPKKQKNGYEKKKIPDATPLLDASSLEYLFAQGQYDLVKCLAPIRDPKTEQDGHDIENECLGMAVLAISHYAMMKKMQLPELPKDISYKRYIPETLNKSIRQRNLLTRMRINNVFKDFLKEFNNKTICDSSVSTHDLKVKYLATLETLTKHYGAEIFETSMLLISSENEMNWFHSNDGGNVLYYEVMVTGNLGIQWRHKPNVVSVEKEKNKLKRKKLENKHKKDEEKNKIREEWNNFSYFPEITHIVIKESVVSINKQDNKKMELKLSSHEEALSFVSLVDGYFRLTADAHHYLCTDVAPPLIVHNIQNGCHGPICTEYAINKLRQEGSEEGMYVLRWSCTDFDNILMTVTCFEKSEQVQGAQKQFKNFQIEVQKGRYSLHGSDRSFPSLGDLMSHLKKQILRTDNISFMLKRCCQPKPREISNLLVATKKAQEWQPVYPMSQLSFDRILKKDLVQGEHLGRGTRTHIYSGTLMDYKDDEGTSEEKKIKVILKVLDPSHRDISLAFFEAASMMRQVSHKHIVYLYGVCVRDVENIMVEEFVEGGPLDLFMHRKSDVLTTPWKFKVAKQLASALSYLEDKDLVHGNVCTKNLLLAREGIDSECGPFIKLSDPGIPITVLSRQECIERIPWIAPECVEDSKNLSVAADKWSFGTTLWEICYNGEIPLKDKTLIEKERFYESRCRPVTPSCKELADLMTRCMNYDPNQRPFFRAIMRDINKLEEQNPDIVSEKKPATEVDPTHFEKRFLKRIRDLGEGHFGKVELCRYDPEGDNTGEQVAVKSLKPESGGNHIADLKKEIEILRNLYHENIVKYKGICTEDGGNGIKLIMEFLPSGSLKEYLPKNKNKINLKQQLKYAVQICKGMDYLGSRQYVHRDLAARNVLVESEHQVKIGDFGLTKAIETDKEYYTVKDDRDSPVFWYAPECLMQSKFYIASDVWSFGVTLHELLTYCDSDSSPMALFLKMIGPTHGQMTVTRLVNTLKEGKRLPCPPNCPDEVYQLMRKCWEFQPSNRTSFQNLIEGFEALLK
Method: as §1

[2] = test system: CD3/IL2 stimulated PBMC cells; assay: IFNγ release from CD3/IL2 stimulated PBMC cells; format: cell-based; conditions: Homo sapiens, CD3/IL2 stimulation, 48 h, ELISA
Method: PBMCs from healthy subjects are separated from whole blood using a density gradient (Lymphoprep, Axis-Shield Healthcare). Cells are added to a 96 well plate, and compound at the desired concentration added 2 hours prior to stimulation with a mixture of monoclonal antibody to CD3 (1 μg/ml, eBioscience) and human recombinant IL2 (10 ng/ml, Peprotech). After 48 hours incubation under normal tissue culture conditions, supernatants are collected and IFNγ release determined by Sandwich ELISA (Duo-set, R&D System). The IC50 is determined from the dose response curve.

TYK2 = TYK2 (Homo sapiens (Human), UniProt P29597); assay: KINOMEscan enzyme binding assay (DiscoveRx), TYK2; conditions: read-out: Dissociation Constant TYK2
TYK2, sequence (P29597 whole entry): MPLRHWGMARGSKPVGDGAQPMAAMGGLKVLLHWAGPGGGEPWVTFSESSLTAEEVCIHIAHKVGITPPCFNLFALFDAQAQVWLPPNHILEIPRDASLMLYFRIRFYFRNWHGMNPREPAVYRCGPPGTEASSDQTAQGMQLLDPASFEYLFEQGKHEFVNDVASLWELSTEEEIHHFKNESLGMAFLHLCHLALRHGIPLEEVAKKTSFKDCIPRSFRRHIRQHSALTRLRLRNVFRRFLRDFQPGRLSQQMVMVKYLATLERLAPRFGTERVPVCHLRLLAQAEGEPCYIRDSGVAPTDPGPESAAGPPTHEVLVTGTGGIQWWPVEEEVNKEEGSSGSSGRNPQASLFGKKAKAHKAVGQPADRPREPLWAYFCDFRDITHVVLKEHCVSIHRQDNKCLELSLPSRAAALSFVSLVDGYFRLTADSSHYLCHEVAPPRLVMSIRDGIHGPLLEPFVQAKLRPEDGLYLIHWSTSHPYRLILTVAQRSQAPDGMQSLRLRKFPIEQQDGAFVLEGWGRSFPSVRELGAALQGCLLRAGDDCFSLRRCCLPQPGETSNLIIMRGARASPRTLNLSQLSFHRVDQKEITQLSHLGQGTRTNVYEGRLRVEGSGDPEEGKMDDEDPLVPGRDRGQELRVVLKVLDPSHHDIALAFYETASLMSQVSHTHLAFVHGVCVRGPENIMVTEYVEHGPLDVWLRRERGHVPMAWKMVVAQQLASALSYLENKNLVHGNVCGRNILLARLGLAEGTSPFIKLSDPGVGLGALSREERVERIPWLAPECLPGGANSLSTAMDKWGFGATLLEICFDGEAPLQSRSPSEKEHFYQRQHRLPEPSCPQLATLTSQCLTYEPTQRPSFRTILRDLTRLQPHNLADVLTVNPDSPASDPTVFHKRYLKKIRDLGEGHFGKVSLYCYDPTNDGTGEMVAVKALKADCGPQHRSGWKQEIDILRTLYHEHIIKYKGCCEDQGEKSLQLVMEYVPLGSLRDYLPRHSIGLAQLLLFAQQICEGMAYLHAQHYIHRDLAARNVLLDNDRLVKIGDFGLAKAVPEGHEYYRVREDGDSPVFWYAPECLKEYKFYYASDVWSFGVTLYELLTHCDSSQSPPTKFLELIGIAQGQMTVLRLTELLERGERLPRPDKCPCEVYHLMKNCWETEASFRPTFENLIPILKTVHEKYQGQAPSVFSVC
Method: as §1

Kd (JAK3): 0.046 nM
Kd (JAK2): 0.034 nM
solubility thermodynamic at 24 h ([1]; Run 1, read-out: pH 6.5 FaSSCoF Solubility, Run 1): 30 µg/mL (≈ 52.5 µM)
solubility thermodynamic at 24 h ([1]; Run 2, read-out: pH 6.5 FaSSCoF Solubility, Run 2): 30 µg/mL (≈ 52.5 µM)
Kd (JAK1): 0.6 nM
Kd (TYK2): 0.069 nM
SMILES: CCc1cc(O)c(F)cc1-c1ccc2c(-c3nc4c([nH]3)CCN(C(=O)N3CCC(N5CCCCC5)CC3)C4)n[nH]c2c1 [Example 2(a), [1,4′-bipiperidin]-1′-yl(2-(6-(2-ethyl-5-fluoro-4-hydroxyphenyl)-1H-indazol-3-yl)-1,4,6,7-tetrahydro-5H-imidazo[4,5-c]pyridin-5-yl)methanone]
% viability at 1 μg/mL (Jurkat cells): 59%
IC50 [2]: 48.4 nM
